Assay results published in article PMC4319922, “WIP1 Phosphatase as a Potential Therapeutic Target in Neuroblastoma” (PLoS ONE, 2015).

Biological target: T1, WIP1 (wild-type p53-induced phosphatase 1, PPM1D) (Homo sapiens, UniProt O15297)
T1 construct: WIP1-ΔExon6-His-pET-23a+ construct
T1 sequence (O15297 1-420 limits assumed): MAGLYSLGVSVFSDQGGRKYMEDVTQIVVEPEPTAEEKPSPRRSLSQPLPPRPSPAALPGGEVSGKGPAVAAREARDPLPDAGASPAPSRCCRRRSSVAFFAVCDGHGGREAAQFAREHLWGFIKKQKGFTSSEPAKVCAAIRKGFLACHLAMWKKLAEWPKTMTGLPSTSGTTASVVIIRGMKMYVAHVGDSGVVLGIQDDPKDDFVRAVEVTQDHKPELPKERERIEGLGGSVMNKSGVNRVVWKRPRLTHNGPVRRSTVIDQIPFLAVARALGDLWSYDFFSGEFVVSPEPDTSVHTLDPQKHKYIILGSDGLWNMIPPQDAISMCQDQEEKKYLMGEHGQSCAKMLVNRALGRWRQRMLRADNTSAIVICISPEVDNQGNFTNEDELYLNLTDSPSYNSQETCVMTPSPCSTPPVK
Assay: in vitro phosphatase assay, free phosphate release (BIOMOL Green), H2AX pS139 phosphopeptide substrate (p53 pS15 peptide:[…])
Format: biochemical

Compound `Cc1ncc(Cl)cc1NCc1ccc(C(=O)N[C@@H](CC2CCCC2)C(=O)NC2CC2)s1` [GSK2830371] has an IC50 of 123 nM.
